From paper PMC12208134, “Structure-activity relationships of 1,5-dihydro-2H-benzo[b][1,4]diazepine-2,4(3H)-diones as inhibitors of Trypanosoma cruzi” (RSC medicinal chemistry, 2025) come the findings set out here.

SMILES strings stand for the structures. In brackets after ≈: the same amount, converted by molar mass. Several values for one entry are separate records, joined by “and”; a condition that tells them apart may be missing. Equal values may be shown once.

Data set [1] concerns intracellular T. cruzi amastigotes. In words: T. cruzi intracellular potency assay (high content imaging). Conditions: for Emax / EC50 / IC50: Trypanosoma cruzi; for Emax / EC50 / Hill slope (T. cruzi) / Max Effect (T. cruzi) / pEC50 (T. cruzi): individual replicate; for Emax: read-out: Max Effect (T. cruzi); for EC50: read-out: pEC50 (T. cruzi) (converted); for IC50: intracellular amastigotes in Vero cells, 96 h, mean of N ≥ 3, read-out: T. cruzi pIC50 (converted). The data set is classed as cell-based, Trypanosoma cruzi. The arrangement: key to Max Effect (T. cruzi): % inhibition; 0% = DMSO control, 100% = 16 μM nifurtimox control. How it is done:
(§1) T. cruzi intracellular potency and rate-of-kill assay (high content imaging) ^1
(§2) Silvio X10/7 T. cruzi trypomastigotes were incubated at 37°C 5% CO2 with 1.6×10^7 Vero cells overnight at MOI10 in MEM media supplemented with 10% foetal calf serum (FCS). Extracellular parasites were removed by aspirating cell culture supernatant, and washing Vero monolayer with 10 ml serum-free MEM three times. Vero cells were then harvested by trypsinization and dispensed at 2×10^3 per well (50 μl in MEM/ 1% FCS) into 384 well plates pre-stamped with compounds in DMSO using automated washer/ dispenser EL406 and liquid handling software (Biotek). Plates were then incubated at 37°C in 5% CO2 for 96 h. For rate-of-kill determination, plates were incubated for 24h, 48h, 72h and 96h.
(§3) Plates were subsequently fixed with 4% formaldehyde for 20 min, permeabilised and stained with 5 μgml^-1 Hoechst 33342/ 0.1% Triton/ PBS Thimerosal 20 min. Automated imaging was performed by an Operetta high content imaging system using 20x objective (PerkinElmer). Images were analysed with an algorithm generated in Columbus (PerkinElmer) to segment Vero cell nuclei, Vero cell cytoplasm and parasite nuclei/ kinetoplasts, reporting number of amastigotes per Vero cell, percent infected Vero cells and total number of Vero cells. Compound potencies against T. cruzi parasites were calculated in IDBS Activitybase using percent infected Vero cells and Vero toxicity curves generated using number of host cells. All data was normalised to percent inhibition based on the raw data values for the 100% effect control (16 μM nifurtimox) and the 0% effect control (DMSO) on each plate at each time point. Curve fitting was carried out using a four-parameter equation as previously described. ^2 For rate-of-kill experiments the percent infected cells at each compound concentration was plotted against time.

The test system of another data set is host Vero cell. Kind of data set: Vero host cell toxicity in the intracellular T. cruzi assay. It counts as cell-based. The arrangement: key to Max Effect (Vero): % inhibition; 0% = DMSO control, 100% = 16 μM nifurtimox control. The note with it: for EC50 / IC50: Chlorocebus sabaeus; for EC50: Vero; for EC50 / Max Effect (Vero) / Hill Slope (Vero) / pEC50 (Vero): individual replicate; for IC50: host Vero cell, read-out: Vero pIC50 (converted). The method, then: as §1, §2, §3

The next data set deals with Tc-CYP51 (Trypanosoma cruzi, UniProt Q7Z1V1). In words: T. cruzi sterol 14α-demethylase (CYP51) enzyme assay. It counts as biochemical. The note with it: for Tc CYP51 Hill / Emax / IC50: individual replicate; for Emax: read-out: Tc CYP51 Max Effect; for IC50: read-out: Tc CYP51 pIC50 (converted); for fold more potent against the parasites than against Tc-CYP51: urea series. The method, then: T. cruzi sterol 14α-demethylase (CYP51) enzyme assay
Chain of Tc-CYP51 (Q7Z1V1 whole entry): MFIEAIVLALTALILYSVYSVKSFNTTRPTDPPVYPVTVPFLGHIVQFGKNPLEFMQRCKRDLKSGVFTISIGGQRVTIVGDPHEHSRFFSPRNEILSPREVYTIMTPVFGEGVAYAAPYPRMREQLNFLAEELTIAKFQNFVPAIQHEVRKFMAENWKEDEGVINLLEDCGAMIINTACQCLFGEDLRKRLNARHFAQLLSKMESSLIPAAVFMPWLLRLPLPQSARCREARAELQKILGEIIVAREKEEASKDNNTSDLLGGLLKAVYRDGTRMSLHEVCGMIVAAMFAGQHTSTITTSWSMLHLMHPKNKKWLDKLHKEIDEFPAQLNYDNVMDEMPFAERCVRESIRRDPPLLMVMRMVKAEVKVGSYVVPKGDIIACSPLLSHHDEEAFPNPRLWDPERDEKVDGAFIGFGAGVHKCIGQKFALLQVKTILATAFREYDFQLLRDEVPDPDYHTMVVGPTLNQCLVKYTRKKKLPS
Potency against T. cruzi CYP51 was determined using a previously described fluorescence assay. Average potency for compound 1 was determined with three experimental replicates. Potencies in Fig.3 are from single experimental replicates. ^5

Data set [2] in a line: Kinetic aqueous solubility by CAD. It counts as physicochemical. Conditions: kinetic from dmso stock; kinetic, CAD; read-out: Aqueous solubility.
Data set [3] is described as follows: Mouse liver microsomal intrinsic clearance. It counts as in vitro ADME. The note with it: mouse liver microsomes. Background: Liver microsomes are a subcellular fraction often used to study metabolism.
Data set [4] is described as follows: Human liver microsomal intrinsic clearance. The data set is classed as in vitro ADME. Conditions: human liver microsomes.
Data set [5] is described as follows: ChromLogD pH7.4 (chromatographic hydrophobicity index), PFI, LLE. The note with it: for PFI: ChromLogDpH7.4 + no. aromatic rings; for chromatographic logD: pH 7.4. The text has this:
[23] Alongside PFI, LLE (ligand lipophilic efficiency, T. cruzi pIC50 - ChromLogDpH7.4) was also monitored to identify changes where the impact on potency was not driven by increasing lipophilicity.

With `COc1ccc(CN2C(=O)C(N)C(=O)N(c3ccccc3)c3ccccc32)cc1` (centres unmarked) [Compound 15, 3-amino-1-(4-methoxybenzyl)-5-phenyl-1,5-dihydro-2H-benzo[b][1,4]diazepine-2,4(3H)-dione], in data set [1], the Emax came to 87%; the EC50 is 1.58 µM; the IC50 is 1.58 µM; the “Hill slope (T. cruzi)” value was 1.8 and 4.1 and 3.2 and 10.2. For the same molecule, in data set [1], the “Max Effect (T. cruzi)” value is 92 and 88; the “pEC50 (T. cruzi)” value is 5.7 and 5.9. Further, in the data set on host Vero cell, the EC50 is more than 50.1 µM; the IC50 was more than 50.1 µM; the “Max Effect (Vero)” value was 9 and 4.52 and 11 and 20. On Tc-CYP51, the “Tc CYP51 Hill” value is 1.2, the Emax turned out to be 94% and the IC50 was 0.2 µM. For the same molecule, the solubility in data set [2] was more than 232 µM. The “MLM CLi” value in data set [3] was determined as 16 mL/min/g. Besides, the “HLM CLi” value in data set [4] came out at 1.3 mL/min/g. In addition, in data set [5], the PFI amounted to 7.1 and the chromatographic logD came out at 4.1.

Consider `COc1cccc(N2C(=O)C(NC(=O)Nc3ccc(C)cc3)C(=O)Nc3ccccc32)c1` (centres unmarked) [Compound 5, 1-(1-(3-methoxyphenyl)-2,4-dioxo-2,3,4,5-tetrahydro-1H-benzo[b][1,4]diazepin-3-yl)-3-(p-tolyl)urea], for which, in data set [1], the Emax came to 87%; the EC50 was 2.51 µM; the IC50 is 2.51 µM; the “Hill slope (T. cruzi)” value was 2.8 and 3.2. Further, in data set [1], the “Max Effect (T. cruzi)” value is 88 and 91; the “pEC50 (T. cruzi)” value was 5.7 and 5.5. Moreover, in the data set on host Vero cell, the EC50 was more than 50.1 µM; the IC50 is more than 50.1 µM; the “Max Effect (Vero)” value is 47 and 14 and 18 and 12. In addition, at Tc-CYP51, the “Tc CYP51 Hill” value is 0.7, the Emax worked out at 68%, the IC50 was 3.98 µM and the “fold more potent against the parasites than against Tc-CYP51” value turned out to be 10 fold. Moreover, the solubility in data set [2] came out at 37 µM (≈ 15.9 µg/mL). For the same molecule, in data set [3], the “MLM CLi” value turned out to be 1.6 mL/min/g. In addition, the “HLM CLi” value in data set [4] is less than 0.4 mL/min/g. For the same molecule, in data set [5], the PFI was 7.8 and the chromatographic logD stood at 4.8.

With `COc1ccc(N2C(=O)C(NC(=O)Nc3ccc(C)cc3)C(=O)Nc3ccccc32)cc1` (centres unmarked) [Compound 4, 1-(1-(4-methoxyphenyl)-2,4-dioxo-2,3,4,5-tetrahydro-1H-benzo[b][1,4]diazepin-3-yl)-3-(p-tolyl)urea], in data set [1], the IC50 was 1 µM; the “Hill slope (T. cruzi)” value is 5.1 and 2.8 and 7.4 and 2.7 and 3.6 and 0.6 and 4.0 and 2.2; the “Max Effect (T. cruzi)” value is 106 and 89 and 74 and 85 and 86 and 109 and 107; the “pEC50 (T. cruzi)” value was 5.7 and 6.1 and 5.8 and 6.5 and 5.9 and 6.0. In the data set with host Vero cell, the EC50 is more than 50.1 µM; the IC50 is more than 50.1 µM; the “Max Effect (Vero)” value is 15 and 26 and 13 and 12 and 17 and 16 and 20 and 4. In addition, on Tc-CYP51, the “Tc CYP51 Hill” value was found to be 0.9, the Emax was found to be 89%, the IC50 was 1.58 µM and the “fold more potent against the parasites than against Tc-CYP51” value was determined as 10 fold. Moreover, in data set [2], the solubility came out at 56 µM (≈ 24.1 µg/mL). Moreover, the “MLM CLi” value in data set [3] was found to be 1.2 mL/min/g. Further, in data set [4], the “HLM CLi” value was less than 0.4 mL/min/g. Further, in data set [5], the PFI is given as 7.8 and the chromatographic logD amounted to 4.8.

In the case of `COc1ccc(CN2C(=O)C(N)C(=O)N(c3ccc(OC)nc3)c3ccccc32)cc1` (centres unmarked) [Compound 18, 3-amino-1-(4-methoxybenzyl)-5-(6-methoxypyridin-3-yl)-1,5-dihydro-2H-benzo[b][1,4]diazepine-2,4(3H)-dione], in data set [1], the Emax came out at 75%; the EC50 was 0.501 µM; the IC50 was 0.501 µM; the “Hill slope (T. cruzi)” value is 11.9 and 18.7 and 19.1 and 12.3. In addition, the “Max Effect (T. cruzi)” value in data set [1] is 86 and 77 and 83. Also, in the data set with host Vero cell, the EC50 is more than 50.1 µM; the IC50 was more than 50.1 µM; the “Hill Slope (Vero)” value was found to be 3.7; the “Max Effect (Vero)” value is 39 and 19 and 56 and 14. Also, the “pEC50 (Vero)” value in the data set on host Vero cell worked out at 4.4. Moreover, at Tc-CYP51, the “Tc CYP51 Hill” value was determined as 1.3, the Emax is 100% and the IC50 is 0.2 µM. Besides, the solubility in data set [2] is more than 332 µM. The “MLM CLi” value in data set [3] was found to be 5.8 mL/min/g. Moreover, the “HLM CLi” value in data set [4] is less than 0.4 mL/min/g. Further, in data set [5], the PFI is 6.8 and the chromatographic logD was determined as 3.8.

For the molecule `COc1ccc(CN2C(=O)C(N)C(=O)N(CC3CC(F)(F)C3)c3ccccc32)cc1` (centres unmarked) [Compound 20, 3-amino-1-((3,3-difluorocyclobutyl)methyl)-5-(4-methoxybenzyl)-1,5-dihydro-2H-benzo[b][1,4]diazepine-2,4(3H)-dione], in data set [1], the Emax turned out to be 84%; the EC50 is 1.26 µM; the IC50 is 1.26 µM; the “Hill slope (T. cruzi)” value is 2.8 and 3.6 and 20.7. Further, in data set [1], the “Max Effect (T. cruzi)” value is 90 and 80 and 87; the “pEC50 (T. cruzi)” value was 6.1 and 6.0 and 5.8. Moreover, in the data set on host Vero cell, the EC50 is more than 50.1 µM; the IC50 was more than 50.1 µM; the “Max Effect (Vero)” value is 30 and 22 and 25 and 9. Besides, at Tc-CYP51, the “Tc CYP51 Hill” value worked out at 1.3, the Emax amounted to 99% and the IC50 was 0.1 µM. Besides, the solubility in data set [2] was more than 402 µM. In addition, the “MLM CLi” value in data set [3] turned out to be 12 mL/min/g. Moreover, the “HLM CLi” value in data set [4] amounted to 0.5 mL/min/g. Also, in data set [5], the PFI is recorded as 6.2 and the chromatographic logD stood at 4.2.

As to `Cc1ccc(NC(=O)NC2COc3ccccc3N(c3ccccc3)C2=O)cc1` (centres unmarked) [Compound 13, 1-(4-oxo-5-phenyl-2,3,4,5-tetrahydrobenzo[b][1,4]oxazepin-3-yl)-3-(p-tolyl)urea], in data set [1], the IC50 is 25.1 µM; the “Hill slope (T. cruzi)” value was 2.6 and 8.4 and 3.4 and 2.9 and 1.5; the “Max Effect (T. cruzi)” value was 84 and 89 and 94 and 80 and 46; the “pEC50 (T. cruzi)” value is 4.6 and 4.8 and 4.7 and 4.5 and < 4.3. In addition, in the data set with host Vero cell, the EC50 is 39.8 µM; the IC50 is 50.1 µM; the “Hill Slope (Vero)” value is 12.0 and 13.9 and 15.1 and 6.4; the “Max Effect (Vero)” value is 80 and 67 and 70 and 76 and 15 and 5.57. For the same molecule, in the data set with host Vero cell, the “pEC50 (Vero)” value is 4.3 and < 4.3. The solubility in data set [2] was 27 µM (≈ 10.5 µg/mL). The “MLM CLi” value in data set [3] was 4.9 mL/min/g. In addition, in data set [4], the “HLM CLi” value is less than 0.4 mL/min/g. For the same molecule, in data set [5], the PFI was 9.1 and the chromatographic logD stood at 6.1.

As to `Cc1ccc(NC(=O)NC2C(=O)Nc3ccccc3N(C(C)C)C2=O)cc1` (centres unmarked) [Compound 7, 1-(1-isopropyl-2,4-dioxo-2,3,4,5-tetrahydro-1H-benzo[b][1,4]diazepin-3-yl)-3-(p-tolyl)urea], in data set [1], the EC50 was 20 µM; the IC50 is 12.6 µM; the “Hill slope (T. cruzi)” value is 2.0 and 0.8 and 3.3 and 2.1; the “Max Effect (T. cruzi)” value is 86 and 58 and 83 and 89. The “pEC50 (T. cruzi)” value in data set [1] is 4.9 and 5.0. In the data set with host Vero cell, the EC50 was more than 50.1 µM; the IC50 was more than 50.1 µM; the “Max Effect (Vero)” value is 25 and 30 and 20 and -11. For the same molecule, in data set [2], the solubility came out at 25 µM (≈ 9.16 µg/mL). Further, the “MLM CLi” value in data set [3] was 1.8 mL/min/g. Further, in data set [4], the “HLM CLi” value was less than 0.4 mL/min/g. Further, in data set [5], the PFI is 6.2 and the chromatographic logD was 4.2.

By solubility is commonly meant how much of the substance goes into solution per volume. The term chromatographic logD denotes a lipophilicity value derived from retention on a column.
